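Abbreviation: GI50, concentration required for 50% inhibition of growth. TGI is the concentration that stops growth completely.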
Assays:
Experiment in all cases: inhibition of tumour cell growth, NCI panel, 384-well format
A498 renal = test system: A498 renal
A549 NSCLC = test system: A549 NSCLC
ACHN renal = test system: ACHN renal
BT-549 breast = test system: BT-549 breast
CAKI-1 renal = test system: CAKI-1 renal
COLO 205 colon = test system: COLO 205 colon
DU-145 prostate = test system: DU-145 prostate
EKVX NSCLC = test system: EKVX NSCLC
HCC-2998 colon = test system: HCC-2998 colon
HCT-116 colon = test system: HCT-116 colon
HCT-15 colon = test system: HCT-15 colon
HL-60(TB) leukemia = test system: HL-60(TB) leukemia
HOP-62 NSCLC = test system: HOP-62 NSCLC
HOP-92 NSCLC = test system: HOP-92 NSCLC
HS 578T breast = test system: HS 578T breast
HT29 colon = test system: HT29 colon
IGROV1 ovarian = test system: IGROV1 ovarian
KM12 colon = test system: KM12 colon
LOX IMVI melanoma = test system: LOX IMVI melanoma
M14 melanoma = test system: M14 melanoma
MALME-3M melanoma = test system: MALME-3M melanoma
MCF7 breast = test system: MCF7 breast
MDA-MB-231 breast = test system: MDA-MB-231 breast
MDA-MB-435 melanoma = test system: MDA-MB-435 melanoma
MDA-MB-468 breast = test system: MDA-MB-468 breast
MOLT-4 leukemia = test system: MOLT-4 leukemia
NCI-H226 lung = test system: NCI-H226 lung

For Cn1ncc(Cl)c1-c1cc(C(=O)N[C@H](CN)Cc2ccc(F)c(F)c2)oc1Cl, the GI50 (A498 renal) was 25.7 nM, the TGI (A498 renal) was 782 nM and the GI50 (A549 NSCLC) was 2660 nM. The TGI (A549 NSCLC) was 13900 nM, the GI50 (ACHN renal) was 2770 nM and the TGI (ACHN renal) was 14900 nM. It also gave a GI50 (BT-549 breast) of 586 nM, a TGI (BT-549 breast) of 2160 nM and a GI50 (CAKI-1 renal) of 2230 nM. It also gave a TGI (CAKI-1 renal) of 12100 nM, a GI50 (COLO 205 colon) of 833 nM and a TGI (COLO 205 colon) of 2710 nM. The GI50 (DU-145 prostate) was 3720 nM, the TGI (DU-145 prostate) was 16400 nM and the GI50 (EKVX NSCLC) was 2070 nM. It also gave a TGI (EKVX NSCLC) of 11000 nM, a GI50 (HCC-2998 colon) of 772 nM and a TGI (HCC-2998 colon) of 2210 nM. The GI50 (HCT-116 colon) was 2330 nM, the TGI (HCT-116 colon) was 10500 nM and the GI50 (HCT-15 colon) was 702 nM. For the same compound, the TGI (HCT-15 colon) was 13400 nM, the GI50 (HL-60(TB) leukemia) was 1260 nM and the TGI (HL-60(TB) leukemia) was 2550 nM. The GI50 (HOP-62 NSCLC) was 3010 nM, the TGI (HOP-62 NSCLC) was 10900 nM and the GI50 (HOP-92 NSCLC) was 2360 nM. For the same compound, the TGI (HOP-92 NSCLC) was 11200 nM, the GI50 (HS 578T breast) was 711 nM and the TGI (HS 578T breast) was 2720 nM. The GI50 (HT29 colon) was 1030 nM, the TGI (HT29 colon) was 7490 nM and the GI50 (IGROV1 ovarian) was 23.1 nM. The TGI (IGROV1 ovarian) was 178 nM, the GI50 (KM12 colon) was 364 nM and the TGI (KM12 colon) was 2820 nM. It also gave a GI50 (LOX IMVI melanoma) of 1940 nM, a TGI (LOX IMVI melanoma) of 3950 nM and a GI50 (M14 melanoma) of 1490 nM. For the same compound, the TGI (M14 melanoma) was 2910 nM, the GI50 (MALME-3M melanoma) was 1050 nM and the TGI (MALME-3M melanoma) was 2240 nM. For the same compound, the GI50 (MCF7 breast) was 130 nM, the TGI (MCF7 breast) was 1800 nM and the GI50 (MDA-MB-231 breast) was 7040 nM. It also gave a TGI (MDA-MB-231 breast) of 19900 nM, a GI50 (MDA-MB-435 melanoma) of 1820 nM and a TGI (MDA-MB-435 melanoma) of 6670 nM. It also gave a GI50 (MDA-MB-468 breast) of 71.9 nM, a TGI (MDA-MB-468 breast) of 1790 nM and a GI50 (MOLT-4 leukemia) of 60 nM. The TGI (MOLT-4 leukemia) was 347 nM, the GI50 (NCI-H226 lung) was 2540 nM and the TGI (NCI-H226 lung) was 8160 nM.

Reference: PubChem BioAssay (NCI)
